Consider 30 compounds from patent US6921821B2, “Antagonists of melanin concentrating hormone receptor” (Abbott Laboratories, priority 2002, dated 2005).

A value given as a limit tells only on which side of the number the result lay.

For this experiment, the target named is T1, murine MCHR (Mus musculus, UniProt Q8JZL2).
T1 construct: expressed in transfected cells; host or cells: HEK293
T1 sequence (Q8JZL2 whole entry): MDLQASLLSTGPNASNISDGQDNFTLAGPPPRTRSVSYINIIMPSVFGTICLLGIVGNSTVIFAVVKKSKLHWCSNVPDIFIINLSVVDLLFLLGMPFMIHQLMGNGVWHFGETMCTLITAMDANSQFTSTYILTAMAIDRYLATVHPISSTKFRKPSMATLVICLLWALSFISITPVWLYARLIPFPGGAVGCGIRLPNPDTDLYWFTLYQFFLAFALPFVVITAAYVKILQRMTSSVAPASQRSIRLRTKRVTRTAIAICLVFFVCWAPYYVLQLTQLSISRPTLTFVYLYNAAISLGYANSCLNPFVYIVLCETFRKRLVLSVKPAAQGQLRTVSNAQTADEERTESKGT
The experiment in a line: Assay for release of intracellular calcium (FLIPR, Fluo-4), inhibition of MCH-induced Ca++ flux. The class given is cell-based. The following applies: test compound at a dose of 10 μM, HEK293 cells expressing the murine MCHR, read-out: inhibition of MCH (MCH induced Ca++ flux / fluorescence). The method, then:
Assay for Release of Intracellular Calcium
Activation of the melanin concentrating hormone receptor (MCHR) by MCH induces the release of Ca^++ from intracellular stores. This intracellular calcium release is measured using a fluorometric imaging plate reader (FLIPR™, Molecular Devices Corp.) in conjunction with the Ca^++-sensitive dye Fluo-4. Release of Ca^++ from intracellular stores causes an increase in fluorescence of the dye that is proportional to Ca^++ concentration. Briefly, the assays are performed as follows. HEK293 cells expressing the murine MCHR are plated overnight at 50,000 cells/well in 96-well plates. The following day, culture medium is removed and replaced with 100 μl/well of D-PBS (+glucose and sodium pyruvate) containing 2.5 μM Fluo-4AM (Molecular Probes), 0.01% Pluronic F-127 and 2.5 mM probenecid. Cells are loaded with the Fluo-4 dye for at least one hour at room temp. After loading, the cells are washed gently to remove extracellular dye and 100 μl of D-PBS (+glucose and sodium pyruvate) is added to each well. Test compounds are prepared at 40 μM in 4% DMSO. The cell plate is placed in the FLIPR™ and 50 μl/well of test compound is delivered. The calcium signal is followed for 3 minutes to assay for potential agonist activity by the test compounds. Then 50 μl/well of 12 nM mouse MCH (in D-PBS containing 0.1% BSA) is added and the ligand-induced calcium signal is followed for an additional 3 minutes. Antagonist activity as determined by the test compounds ability to inhibit MCH induced Ca^++ flux is calculated as % inhibition as described by the following formula: % inhibition=[1−((fTC−fB)÷(fMCH−fB))]×100, where fTC=MCH-induced fluorescence in the presence of test compound; fMCH=MCH-induced fluorescence in the absence of test compound; and fB=Baseline fluorescence.
MCH (3 nM) usually elicits a response of 30,000-40,000 relative fluorescence units (RFU) with a baseline of about 1000 RFU. Fluo-4 fluorescence is measured at 488 nm, with an exposure of 0.40 sec. and F-stop=2.0 and the laser set at 0.40-0.60 W constant light output.
On the technique in general: Calcium assays in cells follow changes in intracellular calcium, usually with a dye or a luminescent sensor.
Consider `CC(c1ccc2ncccc2c1)N1CCC(Nc2cc(=O)oc3ccc(Cl)cc23)CC1` (racemic) [II-106, 6-Chloro-4-[1-(1-quinolin-6-yl-ethyl)-piperidin-4-ylamino]-chromen-2-one], for which the inhibition at 10 µM was at least 50%.

Turning to `CC(=O)c1ccc(C(C)N2CCC(Nc3cc(=O)oc4ccc(Cl)cc34)CC2)cc1` (racemic) [II-116, 4-{1-[1-(4-acetylphenyl)-ethyl]-piperidin-4-ylamino}-6-chlorochromen-2-one], the inhibition at 10 µM is at least 50%.

In the case of `COc1ccc([C@@H](C)N2CCC(Nc3cc(=O)oc4ccc(Cl)cc34)CC2)cc1F` (stereo in doubt) [II-45, 6-Chloro-4-{1-[1-(3-fluoro-4-methoxy-phenyl)-ethyl]-piperidin-4-ylamino}-chromen-2-one], the inhibition at 10 µM was at least 50%.

For `COc1ccc2oc(=O)cc(N[C@H]3CCN(Cc4ccc5c(c4)OCO5)C[C@H]3C)c2c1` (stereo in doubt) [II-53, 4-(1-Benzo[1,3]dioxol-5-ylmethyl-3-methyl-piperidin-4-ylamino)-6-methoxy-chromen-2-one], the inhibition at 10 µM was at least 50%.

Take `COc1ccc2oc(=O)cc(N[C@@H]3CCN(Cc4ccc5c(c4)OCO5)C[C@H]3C)c2c1` (stereo in doubt) [II-72, 4-(1-Benzo[1,3]dioxol-5-ylmethyl-3-methyl-piperidin-4-ylamino)-6-methoxy-chromen-2-one]: the inhibition at 10 µM is at least 50%.

In the case of `O=c1cc(NC2CCN(Cc3ccc4ccccc4c3)CC2)c2cc(Cl)ccc2n1Cc1cccnc1` [Compound V-1, 6-Chloro-4-(1-naphthalen-2-ylmethyl-piperidin-4-ylamino)-1-pyridin-3-ylmethyl-1H-quinolin-2-one], the inhibition at 10 µM was at least 50%.

As to `O=c1cc(NC2CCN(Cc3ccc4c(c3)OCO4)CC2)c2cc(Cl)ccc2n1Cc1ccccn1` [Compound V-2, 4-(1-Benzo[1,3]dioxol-5-ylmethyl-piperidin-4-ylamino)-6-chloro-1-pyridin-2-ylmethyl-1H-quinolin-2-one], the inhibition at 10 µM was at least 50%.

`O=c1cc(NC2CCN(Cc3ccc4c(c3)OCO4)CC2)c2cc(Cl)ccc2n1Cc1ccccc1` [Compound V-3, 4-(1-Benzo[1,3]dioxol-5-ylmethyl-piperidin-4-ylamino)-1-benzyl-6-chloro-1H-quinolin-2-one]: the inhibition at 10 µM is at least 50%.

With `O=c1cc(NC2CCN(Cc3ccc4c(c3)OCO4)CC2)c2cc(Cl)ccc2n1Cc1ccncc1` [Compound V-4, 4-(1-Benzo[1,3]dioxol-5-ylmethylpiperidin-4-ylamino)-6-chloro-1-pyridin-4-ylmethyl-1H-quinolin-2-one], the inhibition at 10 µM was at least 50%.

On to `O=c1cc(NC2CCN(Cc3ccc4ccccc4c3)CC2)c2cc(Cl)ccc2n1Cc1ccncc1` [Compound V-5, 6-Chloro-4-(1-naphthalen-2-ylmethyl-piperidin-4-ylamino)-1-pyridin-4-ylmethyl-1H-quinolin-2-one], for which the inhibition at 10 µM is at least 50%.

Turning to `CCn1c(=O)cc(NC2CCN(Cc3ccc4ccccc4c3)CC2)c2cc(Cl)ccc21` [Compound V-6, 6-Chloro-1-ethyl-4-(1-naphthalen-2-ylmethyl-piperidin-4-ylamino)-1H-quinolin-2-one], the inhibition at 10 µM was at least 50%.

As for `O=c1cc(NC2CCN(Cc3ccc4c(c3)OCO4)CC2)c2cc(Cl)ccc2n1CC(F)(F)F` [Compound V-7, 4-(1-Benzo[1,3]dioxol-5-ylmethylpiperidin-4-ylamino)-6-chloro-1-(2,2,2-trifluoroethyl)-1H-quinolin-2-], the inhibition at 10 µM is at least 50%.

`COc1ccc2c(c1)c(NC1CCN(Cc3ccc4c(c3)OCO4)CC1)cc(=O)n2C` [Compound V-8, 4-(1-Benzo[1,3]dioxol-5-ylmethyl-piperidin-4-ylamino)-6-methoxy-1-methyl-1H-quinolin 2-one]: the inhibition at 10 µM was at least 50%.

With `COc1ccc2c(c1)c(NC1CCN(Cc3ccc4ccccc4c3)CC1)cc(=O)n2C` [Compound V-9, 6-Methoxy-1-methyl-4-(1-naphthalen-2-ylmethyl-piperidin-4-ylamino)-1H-quinolin-2-one], the inhibition at 10 µM is at least 50%.

Take `O=c1cc(NC2CCN(Cc3ccc4occc4c3)CC2)c2cc(Cl)ccc2n1Cc1ccncc1` [Compound V-10, 4-(1-Benzofuran-5-ylmethyl-piperidin-4-ylamino)-6-chloro-1-pyridin-4-ylmethyl-1H-quinolin-2-one]: the inhibition at 10 µM was at least 50%.

On to `O=c1cc(NC2CCN(Cc3ccc4c(c3)OCO4)CC2)c2cc(Cl)ccc2[nH]1` [Compound V-11, 4-(1-Benzo[1,3]dioxol-5-ylmethyl-piperidin-4-ylamino)-6-chloro-1H-quinolin-2-one], for which the inhibition at 10 µM is at least 50%.

In the case of `COc1ccc2c(c1)c(NC1CCN(Cc3ccc4occc4c3)CC1)cc(=O)n2C` [Compound V-12, 4-(1-Benzofuran-5-ylmethyl-piperidin-4-ylamino)-6-methoxy-1-methyl-1H-quinolin-2-one], the inhibition at 10 µM is at least 50%.

For `CCc1ccc2c(c1)c(NC1CCN(Cc3ccc4c(c3)OCO4)CC1)cc(=O)n2C` [Compound V-13, 4-(1-Benzo[1,3]dioxol-5-ylmethyl-piperidin-4-ylamino)-6-ethyl-1-methyl-1H-quinolin-2-one], the inhibition at 10 µM is at least 50%.

For `COc1ccc2c(c1)c(NC1CCN(C/C=C/c3ccccc3)CC1)cc(=O)n2C` [Compound V-14, 6-Methoxy-1-methyl-4-[1-(3-phenyl-allyl)-piperidin-4-ylamino]-1H-quinolin-2-one], the inhibition at 10 µM is at least 50%.

As to `CCc1ccc2c(c1)c(NC1CCN(Cc3ccc4c(c3)OCO4)CC1)cc(=O)n2CC` [Compound V-17, 4-(1-Benzo[1,3]dioxol-5-ylmethyl-piperidin-4-ylamino)-1,6-diethyl-1H-quinolin-2-one], the inhibition at 10 µM is at least 50%.

For the compound `CCc1ccc2c(c1)c(NC1CCN(C(C)c3ccc4c(c3)OCO4)CC1)cc(=O)n2CC` (stereo not drawn) [Compound V-18, 4-[1-(1-Benzo[1,3]dioxol-5-yl-ethyl)-piperidin-4-ylamino]-1,6-diethyl-1H-quinolin-2-one], the inhibition at 10 µM was at least 50%.

As for `O=c1cc(NC2CCN(Cc3ccc4c(c3)OCO4)CC2)c2cc(Cl)ccc2n1Cc1cc[n+]([O-])cc1` [Compound V-19, 4-(1-Benzo[1,3]dioxol-5-ylmethyl-piperidin-4-ylamino)-6-chloro-1-(1-oxy-pyridin-4-ylmethyl)-1H-quinolin-2-one], the inhibition at 10 µM was at least 50%.

For `CCc1ccc2c(c1)c(NC1CCN(Cc3ccc4ccccc4c3)CC1)cc(=O)n2C` [Compound V-20, 6-Ethyl-1-methyl-4-(1-naphthalen-2-ylmethyl-piperidin-4-ylamino)-1H-quinolin-2-one], the inhibition at 10 µM is at least 50%.

On to `Cc1ccc2c(c1)c(NC1CCN(Cc3ccc4ccccc4c3)CC1)cc(=O)n2C` [Compound V-22, 1,6-Dimethyl-4-(1-naphthalen-2-ylmethyl-piperidin-4-ylamino)-1H-quinolin-2-one], for which the inhibition at 10 µM is at least 50%.

Regarding `N#Cc1c(NC2CCN(Cc3ccc4occc4c3)CC2)c2cc(Cl)ccc2[nH]c1=O` [Compound V-23, 4-(1-Benzofuran-5-ylmethyl-piperidin-4-ylamino)-6-chloro-2-oxo-1,2-dihydro-quinoline-3-carbonitrile], the inhibition at 10 µM is at least 50%.

`CN(C)C(=O)c1c(NC2CCN(Cc3ccc4ccccc4c3)CC2)c2cc(Cl)ccc2n(C)c1=O` [Compound V-24, 6-Chloro-1-methyl-4-(1-naphthalen-2-ylmethyl-piperidin-4-ylamino)-2-oxo-1,2-dihydro-quinoline-3-carboxylic acid dimethylamide]: the inhibition at 10 µM is at least 50%.

Regarding `CCc1ccc2c(c1)c(NC1CCN(Cc3ccc4occc4c3)CC1)cc(=O)n2C` [Compound V-25, 4-(1-Benzofuran-5-ylmethyl-piperidin-4-ylamino)-6-ethyl-1-methyl-1H-quinolin-2-one], the inhibition at 10 µM is at least 50%.

Take `O=c1cc(NC2CCN(Cc3ccc4occc4c3)CC2)c2cc(Cl)ccc2n1Cc1ccccn1` [Compound V-26, 4-(1-Benzofuran-5-ylimethyl-piperidin-4-ylamino)-6-chloro-1-pyridin-2-ylmethyl-1H-quinolin-2-one]: the inhibition at 10 µM is at least 50%.

For `N#Cc1c(NC2CCN(Cc3ccc4c(c3)OCO4)CC2)c2cc(Cl)ccc2[nH]c1=O` [Compound V-27, 4-(1-Benzo[1,3]dioxol-5-ylmethyl-piperidin-4-ylamino)-6-chloro-2-oxo-1,2-dihydro-quinoline-3-carbonitrile], the inhibition at 10 µM is at least 50%.

Regarding `CCc1ccc2c(c1)c(NC1CCN(Cc3ccc4occc4c3)CC1)cc(=O)n2CC` [Compound V-28, 4-(1-Benzofuran-5-ylmethyl-piperidin-4-ylamino)-1,6-diethyl-1H-quinolin-2-one], the inhibition at 10 µM was at least 50%.
